From ChEMBL document CHEMBL1921776, “Synthesis and biological activity of acetyl-protected hydroxybenzyl diethyl phosphates (EHBP) as potential chemotherapeutic agents” (Bioorg Med Chem Lett, 2011)
Activity calls are given as the source filed them. The calls are words filed in the database; no cut-off is given here.

Columns and labels:
HT-29 [1] = assay: Cytotoxicity against human HT-29 cells assessed as growth inhibition after 24 hrs by MTT assay; type: functional, cell-based; details: HT-29, 24 h
Jurkat = assay: Cytotoxicity against human Jurkat cells assessed as growth inhibition after 24 hrs by MTT assay; type: functional, cell-based
MCF7 = assay: Cytotoxicity against human MCF7 cells assessed as growth inhibition after 24 hrs by MTT assay; type: functional, cell-based; details: MCF7, 24 h
BXPC-3 [2] = assay: Cytotoxicity against human BxPC3 cells assessed as growth inhibition after 24 hrs by MTT assay; type: functional, cell-based; details: BXPC-3, 24 h
HT-29 [3] = assay: Antiproliferative activity against human HT-29 cells assessed as decrease of PCNA expression after 24 hrs by ELISA; type: functional, cell-based
HT-29 [4] = assay: Induction of apoptosis in human HT-29 cells at 100 uM after 24 hrs using annexin V-FITC and propidium iodide staining by flow cytometry; type: functional
HT-29 [5] = assay: Induction of apoptosis in human HT-29 cells at 300 uM after 24 hrs using annexin V-FITC and propidium iodide staining by flow cytometry; type: functional
HT-29 [6] = assay: Cell cycle arrest in human HT-29 cells assessed as reduction in G0/G1 phase after 24 hrs using propidium iodide staining-based flow cytometry; type: functional
HT-29 [7] = assay: Cell cycle arrest in human HT-29 cells assessed as increase in G2/M phase after 24 hrs using propidium iodide staining-based flow cytometry; type: functional
HT-29 [8] = assay: Cell cycle arrest in human HT-29 cells assessed as reduction in G0/G1 phase at 100 to 300 uM after 24 hrs using propidium iodide staining-based flow cytometry; type: functional
HT-29 [9] = assay: Cell cycle arrest in human HT-29 cells assessed as increase in S phase at 100 to 300 uM after 24 hrs using propidium iodide staining-based flow cytometry; type: functional
HT-29 [10] = assay: Cell cycle arrest in human HT-29 cells assessed as increase in G2/M phase at 100 to 300 uM after 24 hrs using propidium iodide staining-based flow cytometry; type: functional
HT-29 [11] = assay: Induction of apoptosis in human HT-29 cells after 24 hrs using annexin V-FITC and propidium iodide staining by flow cytometry; type: functional, cell-based
HT-29 [12] = assay: Induction of apoptosis in human HT-29 cells at 10 uM after 24 hrs using annexin V-FITC and propidium iodide staining by flow cytometry; type: functional
HT-29 [13] = assay: Induction of apoptosis in human HT-29 cells at 50 uM after 24 hrs using annexin V-FITC and propidium iodide staining by flow cytometry; type: functional
HT-29 [14] = assay: Cell cycle arrest in human HT-29 cells assessed as accumulation of cells at G0/G1 phase at 3 uM after 24 hrs using propidium iodide staining-based flow cytometry (reference value: 74.8%); type: functional
HT-29 [15] = assay: Cell cycle arrest in human HT-29 cells assessed as accumulation of cells at S phase at 3 uM after 24 hrs using propidium iodide staining-based flow cytometry (reference value: 19.4%); type: functional
HT-29 [16] = assay: Cell cycle arrest in human HT-29 cells assessed as accumulation of cells at G2/M phase at 3 uM after 24 hrs using propidium iodide staining-based flow cytometry (reference value: 5.8%); type: functional
HT-29 [17] = assay: Cell cycle arrest in human HT-29 cells assessed as accumulation of cells at G0/G1 phase at 10 uM after 24 hrs using propidium iodide staining-based flow cytometry (reference value: 74.8%); type: functional
HT-29 [18] = assay: Cell cycle arrest in human HT-29 cells assessed as accumulation of cells at S phase at 10 uM after 24 hrs using propidium iodide staining-based flow cytometry (reference value: 19.4%); type: functional
HT-29 [19] = assay: Cell cycle arrest in human HT-29 cells assessed as accumulation of cells at G2/M phase at 10 uM after 24 hrs using propidium iodide staining-based flow cytometry (reference value: 5.8%); type: functional
MIA PaCa-2 [20] = assay: Ratio of p-NO-ASA IC50 to compound IC50 for human MIAPaCa2 cells assessed as growth inhibition after 48 hrs by trypan blue assay; type: functional
BXPC-3 [21] = assay: Ratio of p-NO-ASA IC50 to compound IC50 for human BxPC3 cells assessed as growth inhibition after 48 hrs by trypan blue assay; type: functional
LNCaP [22] = assay: Ratio of p-NO-ASA IC50 to compound IC50 for human LNCAP cells assessed as growth inhibition after 48 hrs by trypan blue assay; type: functional
A549 [23] = assay: Ratio of p-NO-ASA IC50 to compound IC50 for human A549 cells assessed as growth inhibition after 48 hrs by trypan blue assay; type: functional
HT-29 [24] = assay: Ratio of p-NO-ASA IC50 to compound IC50 for human HT-29 cells assessed as growth inhibition after 48 hrs by trypan blue assay; type: functional
HCT-15 [25] = assay: Ratio of p-NO-ASA IC50 to compound IC50 for human HCT15 cells assessed as growth inhibition after 48 hrs by trypan blue assay; type: functional
SCC-25 [26] = assay: Ratio of p-NO-ASA IC50 to compound IC50 for human SCC25 cells assessed as growth inhibition after 48 hrs by trypan blue assay; type: functional
A549 [27] = assay: Cytotoxicity against human A549 cells assessed as growth inhibition after 48 hrs by trypan blue assay; type: functional, cell-based; details: A549, 48 h
HT-29 [28] = assay: Cytotoxicity against human HT-29 cells assessed as growth inhibition after 48 hrs by trypan blue assay; type: functional, cell-based; details: HT-29, 48 h
HCT-15 [29] = assay: Cytotoxicity against human HCT15 cells assessed as growth inhibition after 48 hrs by trypan blue assay; type: functional, cell-based; details: HCT-15, 48 h
SCC-25 [30] = assay: Cytotoxicity against human SCC25 cells assessed as growth inhibition after 48 hrs by trypan blue assay; type: functional, cell-based; details: SCC-25, 48 h
MIA PaCa-2 [31] = assay: Cytotoxicity against human MIAPaCa2 cells assessed as growth inhibition after 48 hrs by trypan blue assay; type: functional, cell-based; details: MIA PaCa-2, 48 h
BXPC-3 [32] = assay: Cytotoxicity against human BxPC3 cells assessed as growth inhibition after 48 hrs by trypan blue assay; type: functional, cell-based; details: BXPC-3, 48 h
LNCaP [33] = assay: Cytotoxicity against human LNCAP cells assessed as growth inhibition after 48 hrs by trypan blue assay; type: functional, cell-based

Question: `CCOP(=O)(OCC)OCc1ccc(OC(C)=O)c(C)c1` was tested. Which IC50 (HT-29 [1]) did it give?
Answer: 310 nM

Question: What about the IC50 (Jurkat) of the same molecule?
Answer: 290 nM

Question: What about the IC50 (MCF7) of the same molecule?
Answer: 320 nM

Question: What about the IC50 (BXPC-3 [2]) of the same molecule?
Answer: 280 nM

Question: With `CCOP(=O)(OCC)OCc1ccccc1OC(C)=O` as the molecule, how does the IC50 (HT-29 [1]) read?
Answer: 82700 nM

Question: And the IC50 (Jurkat)?
Answer: 110000 nM

Question: And the IC50 (MCF7)?
Answer: 62700 nM

Question: And the IC50 (BXPC-3 [2])?
Answer: 155000 nM

Question: How did the IC50 (HT-29 [1]) turn out when `CCOP(=O)(OCC)OCc1ccc(OC(C)=O)c(Cl)c1` was run?
Answer: 1300 nM

Question: And the IC50 (Jurkat)?
Answer: 680 nM

Question: What about the IC50 (MCF7) of the same molecule?
Answer: 700 nM

Question: What about the IC50 (BXPC-3 [2]) of the same molecule?
Answer: 650 nM

Question: What does the source list for `CCOP(=O)(OCC)OCc1cccc(OC(C)=O)c1`?
Answer: Activity (HT-29 [3]): Dose-dependent effect; Activity (HT-29 [4]): 19%; Activity (HT-29 [5]): 79%; Activity (HT-29 [6]): Dose-dependent effect; Activity (HT-29 [7]): Active; Activity (HT-29 [8]): Active; Activity (HT-29 [9]): Active; Activity (HT-29 [10]): Active; IC50 (HT-29 [1]): 273000 nM; IC50 (Jurkat): 451000 nM; IC50 (MCF7): 214000 nM; IC50 (BXPC-3 [2]): 162000 nM

Question: For `CCOP(=O)(OCC)OCc1ccc(OC(C)=O)cc1`, which Activity (HT-29 [11]) is on record?
Answer: Dose-dependent effect

Question: What about the Activity (HT-29 [12]) of the same molecule?
Answer: 25%

Question: What about the Activity (HT-29 [13]) of the same molecule?
Answer: 79%

Question: And the Activity (HT-29 [3])?
Answer: Dose-dependent effect

Question: What about the Activity (HT-29 [6]) of the same molecule?
Answer: Dose-dependent effect

Question: And the Activity (HT-29 [7])?
Answer: Active

Question: What about the Activity (HT-29 [14]) of the same molecule?
Answer: 53.2%

Question: What about the Activity (HT-29 [15]) of the same molecule?
Answer: 38.2%

Question: And the Activity (HT-29 [16])?
Answer: 9.6%

Question: What about the Activity (HT-29 [17]) of the same molecule?
Answer: 42.9%

Question: And the Activity (HT-29 [18])?
Answer: 40.8%

Question: What about the Activity (HT-29 [19]) of the same molecule?
Answer: 16.3%

Question: What about the “Ratio IC50” value (MIA PaCa-2 [20]) of the same molecule?
Answer: 17

Question: And the “Ratio IC50” value (BXPC-3 [21])?
Answer: 17

Question: What about the “Ratio IC50” value (LNCaP [22]) of the same molecule?
Answer: 17

Question: What about the “Ratio IC50” value (A549 [23]) of the same molecule?
Answer: 17

Question: What about the “Ratio IC50” value (HT-29 [24]) of the same molecule?
Answer: 17

Question: What about the “Ratio IC50” value (HCT-15 [25]) of the same molecule?
Answer: 17

Question: And the “Ratio IC50” value (SCC-25 [26])?
Answer: 17

Question: What about the IC50 (HT-29 [1]) of the same molecule?
Answer: 820 nM

Question: What about the IC50 (Jurkat) of the same molecule?
Answer: 650 nM

Question: And the IC50 (MCF7)?
Answer: 670 nM

Question: And the IC50 (BXPC-3 [2])?
Answer: 670 nM

Question: For `CC(=O)Oc1ccccc1C(=O)Oc1ccc(CO[N+](=O)[O-])cc1`, which IC50 (A549 [27]) is on record?
Answer: 10 µM

Question: What about the IC50 (HT-29 [28]) of the same molecule?
Answer: 10 µM

Question: What about the IC50 (HCT-15 [29]) of the same molecule?
Answer: 10 µM

Question: What about the IC50 (SCC-25 [30]) of the same molecule?
Answer: 10 µM

Question: And the IC50 (MIA PaCa-2 [31])?
Answer: 10 µM

Question: And the IC50 (BXPC-3 [32])?
Answer: 10 µM

Question: What about the IC50 (LNCaP [33]) of the same molecule?
Answer: 10 µM
